Experimental data: PubChem BioAssay AID248 (DTP/NCI, 2004)
Values joined by “and” are separate entries in the source; they are usually repeats but may differ in a detail not shown here. Equal entries are not always repeated. Inconclusive results and toxic doses are left out. Cut-off read from the data, not from the text of the source: active = T/C of 150% or more; inactive = T/C below 125%.

Test system: L1210 leukemia ip in BDF1 mice, survival T/C
Assay: NCI In Vivo Anticancer Drug Screen. Data for tumor model L1210 Leukemia (intraperitoneal) in B6D2F1 (BDF1) mice
Details: endpoint: mean survival time, higher = longer survival
Method in brief: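 Tumor was transplanted into mice, which were then dosed with test compound or vehicle alone. Survival was recorded for each group, and the treated figure was expressed relative to the control figure.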

[1] = dose: 100.0 mg/kg/injection, schedule: Q04DX003 (ip), vehicle: Klucel (hydroxypropylcellulose) (HPC)
[2] = dose: 200.0 mg/kg/injection, schedule: Q04DX003 (ip), vehicle: Klucel (hydroxypropylcellulose) (HPC)
[3] = dose: 400.0 mg/kg/injection, schedule: Q04DX003 (ip), vehicle: Klucel (hydroxypropylcellulose) (HPC)
[4] = dose: 100.0 mg/kg/injection, schedule: Q01DX009 (ip), vehicle: Klucel (hydroxypropylcellulose) (HPC)
[5] = dose: 200.0 mg/kg/injection, schedule: Q01DX009 (ip), vehicle: Klucel (hydroxypropylcellulose) (HPC)
[6] = dose: 400.0 mg/kg/injection, schedule: Q01DX009 (ip), vehicle: Klucel (hydroxypropylcellulose) (HPC)
[7] = dose: 100.0 mg/kg/injection, schedule: Q04DX003 (ip), vehicle: saline with Tween-80
[8] = dose: 200.0 mg/kg/injection, schedule: Q04DX003 (ip), vehicle: saline with Tween-80
[9] = dose: 400.0 mg/kg/injection, schedule: Q04DX003 (ip), vehicle: saline with Tween-80
[10] = dose: 100.0 mg/kg/injection, schedule: Q01DX009 (ip), vehicle: saline with Tween-80
[11] = dose: 100.0 mg/kg/injection, schedule: Q04DX002 (ip), vehicle: saline with Tween-80
[12] = dose: 200.0 mg/kg/injection, schedule: Q01DX009 (ip), vehicle: saline with Tween-80
[13] = dose: 100.0 mg/kg/injection, schedule: Q01DX001 (ip), vehicle: carboxymethylcellulose (CMC)
[14] = dose: 200.0 mg/kg/injection, schedule: Q01DX001 (ip), vehicle: carboxymethylcellulose (CMC)
[15] = dose: 400.0 mg/kg/injection, schedule: Q01DX001 (ip), vehicle: carboxymethylcellulose (CMC)

Measured: T/C

COc1ccc(Oc2cccc3cnccc23)cc1
inactive: dose: 100.0 mg/kg/injection, schedule: Q04DX002 (ip), vehicle: Klucel (hydroxypropylcellulose) (HPC) 102 % of control | dose: 200.0 mg/kg/injection, schedule: Q04DX002 (ip), vehicle: Klucel (hydroxypropylcellulose) (HPC) 91 % of control | dose: 400.0 mg/kg/injection, schedule: Q04DX002 (ip), vehicle: Klucel (hydroxypropylcellulose) (HPC) 94 % of control

CCSc1nc(C=O)c(Cc2ccccc2)c(=O)[nH]1
inactive: [1] 101 % of control | [2] 103 % of control | [3] 98 % of control

C[C@H]1CP(c2ccccc2)(c2ccccc2)(c2ccccc2)O[C@@]1(C(=O)c1ccccc1)c1ccccc1
inactive: dose: 12.5 mg/kg/injection, schedule: Q04DX003 (ip), vehicle: saline with Tween-80 100 % of control | dose: 25.0 mg/kg/injection, schedule: Q04DX003 (ip), vehicle: saline with Tween-80 100 % of control | dose: 50.0 mg/kg/injection, schedule: Q04DX003 (ip), vehicle: saline with Tween-80 94 % of control

O=C(O)C(=O)c1ccc(O)cc1O
inactive: dose: 100.0 mg/kg/injection, schedule: Q01DX001 (ip), vehicle: saline 111 % of control | dose: 200.0 mg/kg/injection, schedule: Q01DX001 (ip), vehicle: saline 103 % of control

CC(C)(C#N)c1ccnc2ccccc12
inactive: dose: 12.5 mg/kg/injection, schedule: Q01DX009 (ip), vehicle: Klucel (hydroxypropylcellulose) (HPC) 89 % of control | dose: 25.0 mg/kg/injection, schedule: Q01DX009 (ip), vehicle: Klucel (hydroxypropylcellulose) (HPC) 100 % of control | dose: 25.0 mg/kg/injection, schedule: Q04DX003 (ip), vehicle: Klucel (hydroxypropylcellulose) (HPC) 104 % of control | dose: 50.0 mg/kg/injection, schedule: Q04DX003 (ip), vehicle: Klucel (hydroxypropylcellulose) (HPC) 96 % of control | [1] 96 % of control

CC(C)(C)C(O)C1CCCS1(=O)=O (stereo not given)
inactive: dose: 50.0 mg/kg/injection, schedule: Q01DX001 (ip), vehicle: Klucel (hydroxypropylcellulose) (HPC) 96 % of control

CC12CC/C(=N/NC(=O)Cc3c[nH]c4ccccc34)CC1CCC1C2CCC2(C)C(OC(=O)c3ccccc3)CCC12 (stereo not given)
inactive: dose: 100.0 mg/kg/injection, schedule: Q01DX001 (sc), vehicle: steriod suspending solution 101 % of control | dose: 100.0 mg/kg/injection, schedule: Q01DX009 (sc), vehicle: steriod suspending solution 104 % of control | dose: 200.0 mg/kg/injection, schedule: Q01DX001 (sc), vehicle: steriod suspending solution 100 % of control | dose: 200.0 mg/kg/injection, schedule: Q01DX009 (sc), vehicle: steriod suspending solution 104 % of control | dose: 400.0 mg/kg/injection, schedule: Q01DX001 (sc), vehicle: steriod suspending solution 111 % of control | dose: 400.0 mg/kg/injection, schedule: Q01DX009 (sc), vehicle: steriod suspending solution 102 % of control

CN(Cc1ccccc1)C(=O)Nc1ccc(F)c([N+](=O)[O-])c1
inactive: [4] 113 % of control | [5] 98 % of control | [6] 101 % of control

O=C1CSC(=S)N1c1cccc(C(F)(F)F)c1
inactive: [7] 108 % of control | [8] 101 % of control | [9] 104 % of control

CCOC(=O)C(CCC(C)C)C(C)=O (stereo not given)
inactive: [10] 97 % of control | [11] 101 % of control | [12] 112 % of control | dose: 200.0 mg/kg/injection, schedule: Q04DX002 (ip), vehicle: saline with Tween-80 97 % of control | dose: 400.0 mg/kg/injection, schedule: Q01DX009 (ip), vehicle: saline with Tween-80 104 % of control | dose: 400.0 mg/kg/injection, schedule: Q04DX002 (ip), vehicle: saline with Tween-80 101 % of control

CC1(C)CC(=O)CC(C)(C)N1O
inactive: [4] 94 % of control | [1] 101 % of control | [5] 98 % of control | [2] 94 % of control | [6] 100 % of control | [3] 94 % of control

O=C(O)c1ccc(S(=O)(=O)O)cc1C(=O)O
inactive: dose: 50.0 mg/kg/injection, schedule: Q01DX001 (sc), vehicle: olive oil, sesame oil, peanut oil 104 % of control | dose: 100.0 mg/kg/injection, schedule: Q01DX001 (sc), vehicle: olive oil, sesame oil, peanut oil 102 % of control | [10] 89 % of control | dose: 100.0 mg/kg/injection, schedule: Q04DX003 (ip), vehicle: saline 104 % of control | dose: 200.0 mg/kg/injection, schedule: Q01DX001 (sc), vehicle: olive oil, sesame oil, peanut oil 96 % of control | [12] 88 % of control | dose: 200.0 mg/kg/injection, schedule: Q04DX003 (ip), vehicle: saline 102 % of control | dose: 400.0 mg/kg/injection, schedule: Q01DX001 (sc), vehicle: olive oil, sesame oil, peanut oil 98 % of control | dose: 400.0 mg/kg/injection, schedule: Q04DX003 (ip), vehicle: saline 101 % of control

CCC(Nc1ccccc1)Nc1ccccc1
inactive: dose: 100.0 mg/kg/injection, schedule: Q04DX003 (ip), vehicle: acetone 112 % of control | dose: 200.0 mg/kg/injection, schedule: Q04DX003 (ip), vehicle: acetone 87 % of control | dose: 400.0 mg/kg/injection, schedule: Q04DX003 (ip), vehicle: acetone 94 % of control

CCC1=C/C(=C/c2ccc([N+](=O)[O-])cc2)C(=O)S1
inactive: dose: 100.0 mg/kg/injection, schedule: Q01DX001 (ip), vehicle: saline with Tween-80 87 % of control | dose: 200.0 mg/kg/injection, schedule: Q01DX001 (ip), vehicle: saline with Tween-80 87 % of control | dose: 400.0 mg/kg/injection, schedule: Q01DX001 (ip), vehicle: saline with Tween-80 87 % of control

N#Cc1c(Cl)nsc1Cl
inactive: [4] 97 % of control | [5] 102 % of control

CCOC(=O)C(C)NC(=O)C(CSC(c1ccccc1)(c1ccccc1)c1ccccc1)NC(c1ccccc1)(c1ccccc1)c1ccccc1 (stereo not given)
inactive: dose: 25.0 mg/kg/injection, schedule: Q01DX009 (ip), vehicle: saline 98 % of control | dose: 50.0 mg/kg/injection, schedule: Q01DX009 (ip), vehicle: saline 103 % of control | dose: 100.0 mg/kg/injection, schedule: Q01DX009 (ip), vehicle: saline 92 % of control | dose: 200.0 mg/kg/injection, schedule: Q01DX009 (ip), vehicle: saline 93 % of control | dose: 400.0 mg/kg/injection, schedule: Q01DX009 (ip), vehicle: saline 98 % of control

COc1ccc(-c2ccc(OC)c(OC)c2)cc1OC
inactive: [13] 110 % of control | [14] 104 % of control | [15] 110 % of control

O=C(S)CN1C(=O)c2ccccc2C1=O
inactive: [13] 91 % of control | [14] 93 % of control | [15] 102 % of control

CNNC(=O)c1ccccc1
inactive: dose: 6.25 mg/kg/injection, schedule: Q04DX002 (ip), vehicle: saline 119 % of control | dose: 12.5 mg/kg/injection, schedule: Q04DX002 (ip), vehicle: saline 97 % of control | dose: 25.0 mg/kg/injection, schedule: Q04DX002 (ip), vehicle: saline 97 % of control | dose: 50.0 mg/kg/injection, schedule: Q04DX002 (ip), vehicle: saline 94 % of control and 97 % of control | dose: 100.0 mg/kg/injection, schedule: Q04DX002 (ip), vehicle: saline 98 % of control

O=C(NC(=S)Nc1nc(-c2ccccc2)cs1)c1ccccc1
inactive: dose: 100.0 mg/kg/injection, schedule: Q01DX001 (ip), vehicle: gum acacia 95 % of control | dose: 200.0 mg/kg/injection, schedule: Q01DX001 (ip), vehicle: gum acacia 103 % of control | dose: 400.0 mg/kg/injection, schedule: Q01DX001 (ip), vehicle: gum acacia 103 % of control

COC1(c2ccc([N+](=O)[O-])o2)OC1(C)C (stereo not given)
inactive: [10] 98 % of control | [7] 113 % of control | [12] 95 % of control | [8] 109 % of control | [9] 96 % of control

S=P(S)(Oc1ccc(Cl)cc1Cl)Oc1ccc(Cl)cc1Cl.[Cd]
inactive: dose: 25.0 mg/kg/injection, schedule: Q04DX002 (ip), vehicle: saline with Tween-80 89 % of control | dose: 50.0 mg/kg/injection, schedule: Q04DX002 (ip), vehicle: saline with Tween-80 92 % of control | [11] 123 % of control
